Measurements reported in PubChem BioAssay (NCI).
Values joined by “and” are separate entries in the source; they are usually repeats but may differ in a detail not shown here. Equal values may be shown once.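 Interpolation was linear, between the two tested concentrations surrounding the appropriate level; five concentrations were tested over 48 hours in 96-well plates. The concentration for 50% growth inhibition is given as GI50. TGI: concentration producing complete growth inhibition.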

Columns and labels:
Experiment in all cases: NCI anticancer screen, dose series, 48 h
HT29 colon = test system: HT29 colon
SF-268 CNS = test system: SF-268 CNS
U251 CNS = test system: U251 CNS
SK-MEL-5 melanoma = test system: SK-MEL-5 melanoma
HCC-2998 colon = test system: HCC-2998 colon
HOP-62 NSCLC = test system: HOP-62 NSCLC
RPMI-8226 leukemia = test system: RPMI-8226 leukemia
MDA-MB-231 breast = test system: MDA-MB-231 breast
CAKI-1 renal = test system: CAKI-1 renal
HS 578T breast = test system: HS 578T breast

Row | Structure (SMILES) | TGI (HT29 colon) | TGI (SF-268 CNS) | TGI (U251 CNS) | TGI (SK-MEL-5 melanoma) | TGI (HCC-2998 colon) | TGI (HOP-62 NSCLC) | TGI (RPMI-8226 leukemia) | TGI (MDA-MB-231 breast) | TGI (CAKI-1 renal) | TGI (HS 578T breast) | GI50 (HT29 colon) | GI50 (SF-268 CNS) | GI50 (U251 CNS) | GI50 (SK-MEL-5 melanoma) | GI50 (MDA-MB-231 breast) | GI50 (HOP-62 NSCLC) | GI50 (CAKI-1 renal) | GI50 (HS 578T breast) | GI50 (RPMI-8226 leukemia) | GI50 (HCC-2998 colon)
1 | CN(C)CCNC(=O)c1c2ccccc2cc2ccccc12 | > 100 µM | > 100 µM | > 100 µM | 34.3 µM | > 100 µM | > 100 µM | > 100 µM | – | – | – | – | – | – | – | – | – | – | – | – | –
2 | CN(C)CC1CCCCCC(Br)C1=O (stereo not given) | 50.3 µM | > 66.1 µM | 43 µM | 30.3 µM | 25.7 µM | 47.3 µM | 3.96 µM | 30.9 µM | 16 µM | 61.5 µM | – | – | – | – | – | – | – | – | – | –
3 | COc1ccc(-c2nc(-c3ccccn3)c(-c3ccccn3)n2CC(C)C)cc1OC1CCCC1 | 134 µM | > 165 µM | 86.9 µM | 38.4 µM | – | > 165 µM | 80.5 µM | 125 µM | 90.2 µM | 79.4 µM | 35.3 µM | 43.8 µM | 20.6 µM | 11.4 µM | 18.2 µM | 15.3 µM | 7.44 µM | 9.71 µM | 27.4 µM | –
4 | Cc1cccc(C(C)C)c1NC(=O)CCl | > 100 µM | > 100 µM | > 100 µM | > 100 µM | > 100 µM | 98.8 µM | > 100 µM | – | 91.7 µM | – | – | – | – | – | – | – | – | – | – | –
5 | CCSc1ccc([C@@H]2[C@@H](N)C(=O)N2c2cc(OC)c(OC)c(OC)c2)cc1 | 18 µM | > 100 µM | > 100 µM | > 100 µM | > 100 µM | > 100 µM | 46.9 µM | > 100 µM | – | > 100 µM | 0.0333 µM | 0.0872 µM | 0.061 µM | 0.0783 µM | 0.376 µM | 0.06 µM | – | 0.18 µM | 0.0862 µM | 0.755 µM
6 | CCOC(=O)C(=O)Nc1ccccc1OCC | > 100 µM | > 100 µM | > 100 µM | > 100 µM | > 100 µM | > 100 µM | > 100 µM | – | > 100 µM | – | – | – | – | – | – | – | – | – | – | –
7 | CCOC(OCC)C(CC)[Se]c1ccccc1 (stereo not given) | > 100 µM | > 100 µM | > 100 µM | > 100 µM | > 100 µM | > 100 µM | 57.5 µM | – | > 100 µM | – | – | – | – | – | – | – | – | – | – | –
8 | Nc1nc(-c2ccc(Cl)cc2)cc(-c2ccc(Cl)cc2)c1-c1nc2ccccc2o1 | 36.1 µM | 34.1 µM | 36 µM | 29.9 µM | 33.3 µM | 27.1 µM | 28.3 µM | 31.3 µM | 35.9 µM | 53.1 µM | 11.1 µM | 14.5 µM | 18.5 µM | 15.4 µM | 15.8 µM | 13 µM | 20 µM | 23.5 µM | 13.7 µM | 16.9 µM
9 | O=C(O)c1cn(C2CC2)c2cc(N3CCNCC3)c(F)cc2c1=O | > 100 µM | – | – | > 100 µM | > 100 µM | > 100 µM | > 100 µM | > 100 µM | > 100 µM | > 100 µM | > 100 µM | – | – | > 100 µM | > 100 µM | > 100 µM | > 100 µM | 42.3 µM | > 100 µM | 98 µM
10 | Nc1c(C(=O)NC23CC4CC(CC(C4)C2)C3)[n+]([O-])c2ccccc2[n+]1[O-] | > 100 µM | > 100 µM | > 100 µM | > 100 µM | > 100 µM | > 100 µM | > 100 µM | – | > 100 µM | – | – | – | – | – | – | – | – | – | – | –
11 | COc1ccc(C2=N[C@@H](c3ccc(Cl)cc3)[C@@H](c3ccc(Cl)cc3)N2C(=O)N2CCNC(=O)C2)c(OC(C)C)c1 | 31.4 µM and 28.2 µM and 29.1 µM | 28 µM and 26.5 µM and 27.9 µM | 27.2 µM and 29.5 µM and 31.6 µM | 27.2 µM and 17.7 µM and 19.6 µM | 27.6 µM and 29.8 µM and 26 µM | 31.1 µM and 30.5 µM and 33.3 µM | > 63.7 µM and 62.7 µM and 56.8 µM | 38.4 µM and 27.1 µM and 29.6 µM | 24.7 µM and 12.9 µM and 14.5 µM | 44 µM and 56 µM and 49.3 µM | 14.9 µM and 14.4 µM and 14.2 µM | 13.9 µM and 13.1 µM and 14 µM | 13.7 µM and 14.8 µM and 16.2 µM | 14.1 µM and 5.35 µM and 6.56 µM | 17.2 µM and 13 µM and 14.8 µM | 16.5 µM and 15 µM and 16.1 µM | 11.7 µM and 1.63 µM and 2.35 µM | 15.6 µM and 17.3 µM and 17 µM | 14.6 µM and 16.6 µM and 16.4 µM | 14 µM and 15.7 µM and 12.8 µM
12 | O=S1c2ccccc2NC(c2ccc3ccccc3c2)CC1c1ccccc1 (stereo not given) | 49.6 µM | > 100 µM | – | 37.9 µM | 36 µM | > 100 µM | 60.8 µM | – | 79 µM | – | – | – | – | – | – | – | – | – | – | –
13 | CC[C@H]1CN(C)[C@H]2Cc3c([nH]c4ccccc34)C(=O)C[C@H]1C2C(=O)OC (stereo not given in full) | > 100 µM | > 100 µM | > 100 µM | > 100 µM | > 100 µM | > 100 µM | > 100 µM | > 100 µM | – | > 100 µM | – | – | – | – | – | – | – | – | – | –
14 | CN1C(=O)CCC1c1ccc2c(c1)oc(=O)n2C (stereo not given) | > 100 µM | > 100 µM | > 100 µM | – | > 100 µM | > 100 µM | > 100 µM | – | > 100 µM | – | – | – | – | – | – | – | – | – | – | –
15 | COc1ccc(-c2nnc(SCC(=O)Nc3ccc(C(=O)/C=C/c4cc(OC)c(OC)c(OC)c4)cc3)n2-c2ccccc2)cc1OC | > 10 µM | > 10 µM | > 10 µM | > 10 µM | > 10 µM | > 10 µM | 5.73 µM | > 10 µM | > 10 µM | – | 2.07 µM | 3.46 µM | 5.39 µM | 7.79 µM | 4.84 µM | 8.52 µM | 8.57 µM | – | 0.387 µM | 3.08 µM
16 | CNc1ccc([N+](=O)[O-])c2c(NCCCN(C)C)ccnc12 | > 100 µM | > 100 µM | > 100 µM | – | > 100 µM | > 100 µM | > 100 µM | – | > 100 µM | – | – | – | – | – | – | – | – | – | – | –
17 | CCOc1cc2c(=O)oc3c(OC)ccc4ccc(c1OC)c2c43 | > 100 µM | > 100 µM | > 100 µM | > 100 µM | > 100 µM | > 100 µM | – | 97.5 µM | > 100 µM | > 100 µM | – | – | – | – | – | – | – | – | – | –
18 | CCOc1ccc(NCC2CC/C(=C\c3ccc(Cl)cc3)C2=O)cc1 (stereo not given) | > 56.2 µM | > 86.7 µM | > 57.3 µM | > 59.2 µM | 18 µM | > 100 µM | 10.2 µM | – | > 73.8 µM | – | – | – | – | – | – | – | – | – | – | –
19 | COc1ccc(OC(C)C(=O)O)c2c1CCCC2=O (stereo not given) | > 100 µM | > 100 µM | > 100 µM | > 100 µM | > 100 µM | > 100 µM | > 100 µM | – | – | – | – | – | – | – | – | – | – | – | – | –
20 | O=c1ccn(C2(CO)C=C(CO)C(O)C2O)c(=O)[nH]1 (stereo not given) | – | > 25.7 µM | > 25.7 µM | > 25.7 µM | > 25.7 µM | > 25.7 µM | > 25.7 µM | – | > 25.7 µM | – | – | – | – | – | – | – | – | – | – | –
